Source: patent US20150201650A1, “DIETARY SUPPLEMENT” (Vetafarm Europe Ltd, priority 2009, published 2015)
“And” between values parts separate entries of the source, which are not always exact repeats. Equal entries are not always repeated. “Also recorded” adds a separate entry of the source.

System: horses demonstrating agitated behaviour
Assay: Feeding trial of calcium supplements in horses demonstrating agitated behaviour, marked by the feeder
Format: in vivo, horse
Conditions: for average mark for horses: mean of the feeders' marks (1 bad, 5 good); for feeder's general comment on the horse's behaviour during the trial / mark provided by the feeder, based on the effect noted in the behaviour of the horse: single horse; for mark provided by the feeder, based on the effect noted in the behaviour of the horse: mark between 1 and 5 (bad is 1, good is 5)
Source text: The horses were given doses of calcium chelate calculated to provide a loading dose of 12 grams of calcium per day for five days each week for a period of a month. In the calcium carbonate subject the feed dose was 24 or 48 grams of calcium per day. The feeder provided a mark between 1 and 5 where bad is 1 and good is 5. The mark allocated was based on the effect noted in the behaviour of the horse. The feeder also provided general comments on the horses' behaviour during the trial.

[1] = 60 grams of calcium carbonate only
[2] = 120 grams of calcium carbonate only
[3] = 12 grams of calcium per day, five days each week for a month
[4] = loading dose of 12 grams of calcium per day, five days each week for a month, supplement of the calcium chelate only

Molecule | average mark for horses (feed dose 24 or 48 grams of calcium per day as calcium carbonate) | feeder's general comment on the horse's behaviour during the trial [1] | feeder's general comment on the horse's behaviour during the trial [2] | mark provided by the feeder, based on the effect noted in the behaviour of the horse [1] | mark provided by the feeder, based on the effect noted in the behaviour of the horse [2] | average mark for horses [3] | feeder's general comment on the horse's behaviour during the trial [3] | mark provided by the feeder, based on the effect noted in the behaviour of the horse [4]
O=C([O-])[O-].[Ca+2] [calcium carbonate, reference compound] | 1.67 | not much difference in the behaviour; also recorded: No significant change | small improvement in the horse's behaviour but not sufficient for the horse to be ridden | 1.5 and 1 | 2.5 |  |  | 
calcium gluconate |  |  |  |  |  | 3.33 | calmed down without losing any energy; also recorded: did not notice a difference in the horses' behaviour for the first couple of weeks; also recorded: within two weeks the horse was completely calm | 4.5 and 2.5 and 3
O=C([O-])CC(O)(CC(=O)[O-])C(=O)[O-].O=C([O-])CC(O)(CC(=O)[O-])C(=O)[O-].[Ca+2].[Ca+2].[Ca+2] [calcium citrate] |  |  |  |  |  | 4.6 | a lot calmer and rational; also recorded: much calmer and friendlier; also recorded: very good response; also recorded: much calmer generally | 4.5 and 4 and 5
